From ChEMBL document CHEMBL4043190 (Bioorg Med Chem Lett, 2017)

Legend:
Mus musculus [1] = assay: Antiinflammatory activity in IMQ-induced BALB/c mouse psoriasis model assessed as reduction in ear thickness at 70 mg/kg, po bid for 5 days meausred on day 6; type: functional; design: scale not given: the % may be the effect or the level left
Mus musculus [2] = assay: Anti-inflammatory activity in IL-23/IL-1beta induced C57BL/6J mouse assessed as inhibition of IL-17F level in serum pretreated po for 30 mins followed by cytokine addition measured after 3 hrs by ELISA; type: functional, organism-based
[3] = molecular target: Tyrosine-protein kinase JAK2 (Homo sapiens, UniProt O60674); assay: Inhibition of JAK2 (unknown origin) assessed as reduction in EPO-mediated STAT5 phosphorylation by cell based readout assay
Sequence of Tyrosine-protein kinase JAK2 (O60674 whole entry): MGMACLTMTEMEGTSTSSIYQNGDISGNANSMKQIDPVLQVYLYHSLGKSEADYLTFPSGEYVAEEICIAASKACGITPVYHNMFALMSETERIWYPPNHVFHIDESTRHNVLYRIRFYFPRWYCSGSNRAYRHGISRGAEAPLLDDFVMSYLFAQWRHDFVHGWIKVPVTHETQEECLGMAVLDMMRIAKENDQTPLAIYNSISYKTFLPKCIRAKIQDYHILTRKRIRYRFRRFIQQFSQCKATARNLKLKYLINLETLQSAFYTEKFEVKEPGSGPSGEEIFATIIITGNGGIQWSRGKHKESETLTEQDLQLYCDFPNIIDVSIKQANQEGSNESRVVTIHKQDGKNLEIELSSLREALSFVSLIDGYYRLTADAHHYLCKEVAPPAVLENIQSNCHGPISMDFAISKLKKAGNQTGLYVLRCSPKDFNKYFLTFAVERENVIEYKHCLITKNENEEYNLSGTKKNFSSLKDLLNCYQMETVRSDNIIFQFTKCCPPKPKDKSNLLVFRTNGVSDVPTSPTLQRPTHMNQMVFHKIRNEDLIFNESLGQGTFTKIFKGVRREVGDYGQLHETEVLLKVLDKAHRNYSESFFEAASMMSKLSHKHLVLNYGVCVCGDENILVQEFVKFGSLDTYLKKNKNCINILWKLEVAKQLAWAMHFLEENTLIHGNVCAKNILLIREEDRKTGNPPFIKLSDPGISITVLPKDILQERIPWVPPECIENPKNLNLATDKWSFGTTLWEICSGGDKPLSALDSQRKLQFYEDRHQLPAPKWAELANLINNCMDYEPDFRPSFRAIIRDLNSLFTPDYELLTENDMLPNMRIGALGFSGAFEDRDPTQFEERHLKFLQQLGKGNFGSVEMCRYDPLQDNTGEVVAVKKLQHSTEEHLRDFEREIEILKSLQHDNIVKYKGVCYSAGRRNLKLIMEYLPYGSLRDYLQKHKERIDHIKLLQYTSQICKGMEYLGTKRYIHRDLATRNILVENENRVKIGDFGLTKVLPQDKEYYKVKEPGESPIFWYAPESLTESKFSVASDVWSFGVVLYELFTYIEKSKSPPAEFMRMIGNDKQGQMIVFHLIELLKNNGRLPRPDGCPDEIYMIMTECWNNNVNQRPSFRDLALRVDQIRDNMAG

[4] = Ratio of unbound drug concentration in IL-23/IL-1beta induced C57BL/6J mouse plasma at 70 mg/kg, po to EC50 for TYK2 (unknown origin) assessed as inhibition of IL-23 induced STAT3 phosphorylation
Mus musculus [5] = assay: Toxicity in IMQ-induced BALB/c mouse model assessed as reduction in platelet levels at 100 mg/kg, po bid for 5 days; type: organism-based; design: scale not given: the % may be the effect or the level left; conditions: in vivo, 120 h
Mus musculus [6] = assay: Antiinflammatory activity in IMQ-induced BALB/c mouse model assessed as reduction in serum IL-17F production administered po bid for 5 days; type: functional, organism-based
Mus musculus [7] = assay: Antiinflammatory activity in IMQ-induced BALB/c mouse model assessed as reduction in serum IL-17F production at 30 mg/kg, po bid for 5 days; type: functional; design: scale not given: the % may be the effect or the level left
[8] = molecular target: Cyclin-dependent kinase 2 (Homo sapiens, UniProt P24941); assay: Inhibition of CDK2 (unknown origin)
[9] = Ratio of unbound drug concentration in IL-23/IL-1beta induced C57BL/6J mouse plasma at 70 mg/kg, po to EC50 for JAK2 (unknown origin) assessed as inhibition of EPO-mediated STAT5 phosphorylation; type: organism-based; conditions: in vivo
Mus musculus [10] = assay: Anti-inflammatory activity in IL-23/IL-1beta induced C57BL/6J mouse assessed as inhibition of IL-17F level in serum at 30 mg/kg, po pretreated for 30 mins followed by cytokine addition measured after 3 hrs by ELISA relative to control; type: functional
Mus musculus [11] = assay: Antiinflammatory activity in IMQ-induced BALB/c mouse model assessed as reduction in serum IL-17F production at 70 mg/kg, po bid for 5 days; type: functional; design: scale not given: the % may be the effect or the level left
[12] = molecular target: T1, Tyrosine-protein kinase JAK3 (Homo sapiens, UniProt P52333); assay: Inhibition of JAK3 (unknown origin)
T1 sequence (P52333 whole entry): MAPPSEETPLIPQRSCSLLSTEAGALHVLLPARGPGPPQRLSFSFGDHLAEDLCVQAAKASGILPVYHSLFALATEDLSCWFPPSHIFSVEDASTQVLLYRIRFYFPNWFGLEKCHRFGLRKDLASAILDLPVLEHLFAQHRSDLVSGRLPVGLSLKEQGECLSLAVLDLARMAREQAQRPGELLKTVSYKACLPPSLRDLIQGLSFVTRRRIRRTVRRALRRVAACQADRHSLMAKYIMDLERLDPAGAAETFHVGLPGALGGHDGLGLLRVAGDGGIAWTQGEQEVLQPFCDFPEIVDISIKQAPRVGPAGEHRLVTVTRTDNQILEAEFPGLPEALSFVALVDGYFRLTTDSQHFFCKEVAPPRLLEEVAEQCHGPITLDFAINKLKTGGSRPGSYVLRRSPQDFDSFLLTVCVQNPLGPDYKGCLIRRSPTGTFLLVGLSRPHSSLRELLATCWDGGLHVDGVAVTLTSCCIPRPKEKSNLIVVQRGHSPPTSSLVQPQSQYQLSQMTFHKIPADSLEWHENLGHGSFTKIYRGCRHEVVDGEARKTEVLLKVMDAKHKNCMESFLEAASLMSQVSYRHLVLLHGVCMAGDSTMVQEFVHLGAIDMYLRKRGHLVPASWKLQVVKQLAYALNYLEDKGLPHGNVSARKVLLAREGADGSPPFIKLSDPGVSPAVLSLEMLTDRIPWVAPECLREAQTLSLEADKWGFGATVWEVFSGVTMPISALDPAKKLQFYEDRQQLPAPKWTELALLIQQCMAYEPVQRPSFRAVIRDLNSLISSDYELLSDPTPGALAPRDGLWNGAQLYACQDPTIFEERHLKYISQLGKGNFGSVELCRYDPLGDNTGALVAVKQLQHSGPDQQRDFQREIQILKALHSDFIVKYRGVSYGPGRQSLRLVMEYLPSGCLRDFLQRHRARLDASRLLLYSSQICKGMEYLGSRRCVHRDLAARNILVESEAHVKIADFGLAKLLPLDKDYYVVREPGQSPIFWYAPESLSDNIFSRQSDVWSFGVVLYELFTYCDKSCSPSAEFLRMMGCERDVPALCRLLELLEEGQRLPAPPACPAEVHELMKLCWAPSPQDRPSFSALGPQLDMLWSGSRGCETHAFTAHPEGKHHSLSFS

EC50 [3]: 1400 nM
Ki [8]: 89 nM
Ratio [9]: 1.1
Ki [12]: 58 nM
SMILES: Cc1cc(Nc2nccc3nc(-c4c(Cl)cc(C#N)cc4Cl)[nH]c23)ncn1
Activity (Mus musculus [1]): 78%
inhibition (Mus musculus [2]): Dose-dependent effect
Ratio [4]: 23
Activity (Mus musculus [5]): 54%
inhibition (Mus musculus [6]): Dose-dependent effect
Activity (Mus musculus [7]): 74%
inhibition in vivo at 30 mg/kg (Mus musculus [10]): 30%
Activity (Mus musculus [11]): 100%
